Common to all, as to format: cell-based
One experiment concerns the target T1, human TLR7 (Homo sapiens, UniProt Q9NYK1).
T1 construct: host or cells: HEK-Blue cells (HEK293-derived reporter line)
T1 sequence (Q9NYK1 27-1049): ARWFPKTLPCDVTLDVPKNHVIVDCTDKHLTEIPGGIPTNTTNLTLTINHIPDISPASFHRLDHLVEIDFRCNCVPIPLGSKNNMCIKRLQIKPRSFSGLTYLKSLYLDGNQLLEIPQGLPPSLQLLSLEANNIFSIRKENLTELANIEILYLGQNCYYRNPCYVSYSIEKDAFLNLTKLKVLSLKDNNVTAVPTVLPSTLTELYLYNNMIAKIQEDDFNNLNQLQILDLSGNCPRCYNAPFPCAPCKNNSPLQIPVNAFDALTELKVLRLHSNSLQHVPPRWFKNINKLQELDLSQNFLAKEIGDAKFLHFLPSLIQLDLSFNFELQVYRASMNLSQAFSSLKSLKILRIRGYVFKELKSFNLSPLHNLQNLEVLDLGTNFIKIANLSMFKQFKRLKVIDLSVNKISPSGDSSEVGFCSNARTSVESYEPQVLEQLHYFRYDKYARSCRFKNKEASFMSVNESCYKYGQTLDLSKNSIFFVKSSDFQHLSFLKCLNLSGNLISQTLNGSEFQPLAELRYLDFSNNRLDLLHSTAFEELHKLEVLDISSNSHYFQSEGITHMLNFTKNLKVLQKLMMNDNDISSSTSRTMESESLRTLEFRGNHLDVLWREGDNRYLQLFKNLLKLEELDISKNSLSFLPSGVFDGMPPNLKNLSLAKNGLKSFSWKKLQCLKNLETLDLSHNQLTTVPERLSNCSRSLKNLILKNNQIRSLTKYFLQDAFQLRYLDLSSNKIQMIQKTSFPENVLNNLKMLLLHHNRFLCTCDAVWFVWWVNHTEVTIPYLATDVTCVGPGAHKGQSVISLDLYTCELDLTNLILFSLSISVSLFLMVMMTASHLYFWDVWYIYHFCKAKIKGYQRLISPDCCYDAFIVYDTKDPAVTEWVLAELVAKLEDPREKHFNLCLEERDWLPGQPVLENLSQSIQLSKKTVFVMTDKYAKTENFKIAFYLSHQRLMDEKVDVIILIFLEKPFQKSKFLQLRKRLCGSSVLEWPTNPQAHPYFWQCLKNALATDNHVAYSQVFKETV
Put plainly: TLR7 inhibition reporter assay (HEK-Blue cells, SEAP reporter, gardiquimod stimulation). As to conditions: HEK-Blue cells overexpressing human TLR7, SEAP reporter, gardiquimod 7.5 μM. Summed up:
(§1)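 After 22 h at 37 °C, SEAP secretion was measured from human TLR7-, TLR8- or TLR9-expressing HEK-Blue reporter cells given compound (0.05 nM–50 μM) 30 min before agonist: 7.5 μM gardiquimod, 15.9 μM R848 or 5 nM ODN2006 respectively. Percent inhibition referenced to agonist-plus-DMSO and known-inhibitor wells.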

In another experiment the target is T2, human TLR8 (Homo sapiens, UniProt Q9NR97).
T2 construct: host or cells: HEK-Blue cells (HEK293-derived reporter line)
T2 sequence (Q9NR97 27-1041): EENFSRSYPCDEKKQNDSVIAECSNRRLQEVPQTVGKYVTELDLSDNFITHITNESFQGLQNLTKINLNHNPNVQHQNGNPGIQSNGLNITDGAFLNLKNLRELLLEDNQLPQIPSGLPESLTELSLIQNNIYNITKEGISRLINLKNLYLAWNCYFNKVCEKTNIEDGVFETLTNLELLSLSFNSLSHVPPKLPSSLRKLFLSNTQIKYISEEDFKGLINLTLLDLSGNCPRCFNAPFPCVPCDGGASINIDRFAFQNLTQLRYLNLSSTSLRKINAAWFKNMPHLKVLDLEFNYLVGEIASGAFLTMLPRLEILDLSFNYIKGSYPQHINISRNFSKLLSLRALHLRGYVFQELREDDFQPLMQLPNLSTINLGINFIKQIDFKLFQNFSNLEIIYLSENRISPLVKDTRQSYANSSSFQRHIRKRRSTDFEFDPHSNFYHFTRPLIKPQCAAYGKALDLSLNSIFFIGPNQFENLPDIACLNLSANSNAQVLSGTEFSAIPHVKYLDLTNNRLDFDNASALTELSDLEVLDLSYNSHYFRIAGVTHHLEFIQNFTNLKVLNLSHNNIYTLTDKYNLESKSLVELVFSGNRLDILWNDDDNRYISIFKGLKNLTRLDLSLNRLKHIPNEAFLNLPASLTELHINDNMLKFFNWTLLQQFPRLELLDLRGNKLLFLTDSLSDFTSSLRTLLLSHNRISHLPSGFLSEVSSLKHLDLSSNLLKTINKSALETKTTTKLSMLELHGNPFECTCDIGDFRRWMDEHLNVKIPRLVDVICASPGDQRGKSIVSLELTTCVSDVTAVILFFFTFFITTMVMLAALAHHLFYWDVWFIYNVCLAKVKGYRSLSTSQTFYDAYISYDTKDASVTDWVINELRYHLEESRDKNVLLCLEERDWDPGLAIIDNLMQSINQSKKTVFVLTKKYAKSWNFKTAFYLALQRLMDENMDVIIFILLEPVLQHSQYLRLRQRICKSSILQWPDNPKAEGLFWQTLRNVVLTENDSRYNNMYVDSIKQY
Put plainly: TLR8 inhibition reporter assay (HEK-Blue cells, SEAP reporter, R848 stimulation). As to conditions: HEK-Blue cells overexpressing human TLR8, SEAP reporter, R848 15.9 μM. The method, boiled down:
as §1

Another experiment addresses T3, human TLR9 (Homo sapiens, UniProt Q9NR96).
T3 construct: host or cells: HEK-Blue cells (HEK293-derived reporter line)
T3 sequence (Q9NR96 26-1032): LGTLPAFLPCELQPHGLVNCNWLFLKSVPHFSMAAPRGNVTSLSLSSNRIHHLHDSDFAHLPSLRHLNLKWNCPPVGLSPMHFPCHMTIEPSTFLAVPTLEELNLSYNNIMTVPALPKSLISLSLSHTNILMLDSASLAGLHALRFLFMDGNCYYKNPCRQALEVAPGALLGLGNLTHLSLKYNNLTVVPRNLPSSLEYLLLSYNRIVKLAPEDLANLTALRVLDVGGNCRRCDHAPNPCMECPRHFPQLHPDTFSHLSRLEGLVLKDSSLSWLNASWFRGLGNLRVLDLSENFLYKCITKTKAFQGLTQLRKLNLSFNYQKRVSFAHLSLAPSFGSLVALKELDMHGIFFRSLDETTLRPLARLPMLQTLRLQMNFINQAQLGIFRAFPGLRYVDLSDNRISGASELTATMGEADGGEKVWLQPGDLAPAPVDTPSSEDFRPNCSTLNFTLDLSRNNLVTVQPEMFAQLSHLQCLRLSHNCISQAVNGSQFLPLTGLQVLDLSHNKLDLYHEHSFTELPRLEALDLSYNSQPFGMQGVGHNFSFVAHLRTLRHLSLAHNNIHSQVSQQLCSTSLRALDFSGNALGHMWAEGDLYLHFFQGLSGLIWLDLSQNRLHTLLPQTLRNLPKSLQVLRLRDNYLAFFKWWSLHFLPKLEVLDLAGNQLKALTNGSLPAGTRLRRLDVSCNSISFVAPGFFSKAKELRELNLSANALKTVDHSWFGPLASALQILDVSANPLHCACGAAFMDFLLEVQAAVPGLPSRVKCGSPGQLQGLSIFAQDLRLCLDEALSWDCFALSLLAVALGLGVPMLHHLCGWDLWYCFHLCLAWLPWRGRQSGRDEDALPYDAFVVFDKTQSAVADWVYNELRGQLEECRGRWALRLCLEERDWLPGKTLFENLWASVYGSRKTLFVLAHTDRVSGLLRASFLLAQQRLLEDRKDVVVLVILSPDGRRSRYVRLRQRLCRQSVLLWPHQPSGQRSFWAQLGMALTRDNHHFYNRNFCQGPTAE
The experiment can be described thus: TLR9 inhibition reporter assay (HEK-Blue cells, SEAP reporter, ODN2006 stimulation). The note with it: HEK-Blue cells overexpressing human TLR9, SEAP reporter, ODN2006 5 nM. Summed up: as §1

This is an account of results in patent US11739098B2 (BRISTOL-MYERS SQUIBB COMPANY, priority 2017, dated 2023).

A value given as a limit tells only on which side of the number the result lay.

Turning to `CNC(=O)CN1CCC(c2ccc3[nH]c(-c4ccc(C)n5nc(C)nc45)c(C(C)C)c3c2)CC1` [Example 383, 2-(4-(2-(2,5-dimethyl-[1,2,4]triazolo[1,5-a]pyridin-8-yl)-3-isopropyl-1H-indol-5-yl)piperidin-1-yl)-N-methylacetamide], the IC50 at human TLR7 was 1 to 50 µM; against human TLR8, 0.1 to 1 µM; against human TLR9, 1 to 50 µM.

In the case of `CCc1c(-c2ccnc3[nH]ncc23)[nH]c2ccc(C3CCN(Cc4nccs4)CC3)cc12` [Example 929, 2-((4-(3-ethyl-2-(1H-pyrazolo[3,4-b]pyridin-4-yl)-1H-indol-5-yl)piperidin-1-yl)methyl)thiazole], the concentration for half-maximal inhibition (IC50) is 0.1 to 1 µM at human TLR7, under 0.1 µM at human TLR8 and 1 to 50 µM on human TLR9.

On to `Cc1cc(-c2[nH]c3ccc(C4CCN(CC(=O)N(C)C)CC4)cc3c2C(C)C)cc2ocnc12` [Example 291, 2-(4-(3-isopropyl-2-(4-methylbenzo[d]oxazol-6-yl)-1H-indol-5-yl)piperidin-1-yl)-N,N-dimethylacetamide], for which the results for the IC50 on human TLR7, at human TLR8 and against human TLR9 were under 0.1 µM, under 0.1 µM and 1 to 50 µM, respectively.

For the compound `Cc1cc(-c2[nH]c3ccc(C4CCN(CCCC(F)(F)F)CC4)cc3c2C(C)C)cn2nnnc12` [Example 963, 6-(3-isopropyl-5-(1-(4,4,4-trifluorobutyl)piperidin-4-yl)-1H-indol-2-yl)-8-methyltetrazolo[1,5-a]pyridine], the figures for the IC50 on human TLR7, against human TLR8 and on human TLR9 were under 0.1 µM, under 0.1 µM and 1 to 50 µM, respectively.

For `CNCC(=O)N1CCC(c2ccc3[nH]c(-c4cc(C(F)(F)F)c5nccn5c4)c(C(C)C)c3c2)CC1` [Example 508, 1-(4-(3-isopropyl-2-(8-(trifluoromethyl)imidazo[1,2-a]pyridin-6-yl)-1H-indol-5-yl)piperidin-1-yl)-2-(methylamino)ethan-1-one], the IC50 is under 0.1 µM at human TLR7, 0.1 to 1 µM on human TLR8 and 0.1 to 1 µM against human TLR9.

With `Cc1cn2cc(-c3[nH]c4ccc(C5CCN(CC(=O)N(C)C)CC5)cc4c3CC(F)F)ccc2n1` [Example 416, 2-(4-(3-(2,2-difluoroethyl)-2-(2-methylimidazo[1,2-a]pyridin-6-yl)-1H-indol-5-yl)piperidin-1-yl)-N,N-dimethylacetamide], the IC50 was under 0.1 µM at human TLR7, over 3.13 µM against human TLR8 and under 0.1 µM at human TLR9.

Consider `CC(C)c1c(-c2cc(CO)c3nccn3c2)[nH]c2ccc(C3CCN(C(=O)CN(C)C)CC3)cc12` [Example 492, 2-(dimethylamino)-1-(4-(2-(8-(hydroxymethyl)imidazo[1,2-a]pyridin-6-yl)-3-isopropyl-1H-indol-5-yl)piperidin-1-yl)ethan-1-one], for which the IC50 against human TLR7 was under 0.1 µM; on human TLR8, under 0.1 µM; against human TLR9, 0.1 to 1 µM.

Turning to `CCc1c(-c2ccc3[nH]c(=O)[nH]c3c2)[nH]c2ccc(C3CCNCC3)cc12` [Example 166, 5-(3-ethyl-5-(piperidin-4-yl)-1H-indol-2-yl)-1,3-dihydro-2H-benzo[d]imidazol-2-one], the IC50 against human TLR7 lay in the range of 1 to 50 µM; on human TLR8, 0.1 to 1 µM; at human TLR9, 1 to 50 µM.

In the case of `CNC(=O)c1cn2cc(-c3[nH]c4ccc(C5CCN(C(=O)CN(C)C)CC5)cc4c3C(C)C)cc(C)c2n1` [Example 495, 6-(5-(1-(dimethylglycyl)piperidin-4-yl)-3-isopropyl-1H-indol-2-yl)-N,8-dimethylimidazo[1,2-a] pyridine-2-carboxamide], the IC50 was under 0.1 µM against human TLR7, under 0.1 µM against human TLR8 and 0.1 to 1 µM against human TLR9.

As to `Cc1ccnc2c1c(-c1[nH]c3ccc(C4CCNCC4)cc3c1C(C)C)cn2C` [Example 35, 3-(3-isopropyl-5-(piperidin-4-yl)-1H-indol-2-yl)-1,4-dimethyl-1H-pyrrolo[2,3-b]pyridine], the IC50 at human TLR7 is under 0.1 µM; against human TLR8, under 0.1 µM; against human TLR9 it was 1 to 50 µM.

On to `Cc1cc(-c2[nH]c3ccc(C4CCN(C(=O)CCN(C)C5CC5)CC4)cc3c2C(C)C)cn2nnnc12` [Example 623, 3-(cyclopropyl(methyl)amino)-1-(4-(3-isopropyl-2-(8-methyltetrazolo[1,5-a]pyridin-6-yl)-1H-indol-5-yl)piperidin-1-yl)propan-1-one], for which the figures for the IC50 against human TLR7, against human TLR8 and against human TLR9 were under 0.1 µM, under 0.1 µM and 1 to 50 µM, respectively.

As to `CNC(=O)CN1CCC(c2ccc3[nH]c(-c4cc(OC)n5ncnc5c4)c(C(C)C)c3c2)CC1` [Example 332, 2-(4-(3-isopropyl-2-(5-methoxy-[1,2,4]triazolo[1,5-a]pyridin-7-yl)-1H-indol-5-yl)piperidin-1-yl)-N-methylacetamide], the values for the IC50 on human TLR7, at human TLR8 and on human TLR9 were under 0.1 µM, under 0.1 µM and 0.1 to 1 µM, respectively.
